pIC50, pKi: −log10 of the molar value. Where two headings read alike, the source gives them in different places. Marks after values point to notes of the source that are not given here.

Consider five compounds from patent US20100298282A1, “Treatment of Ocular Conditions and the Side-Effects of Glucocorticoids” (priority 2006, published 2010).

In experiment [1] the target is T1, human recombinant receptor (GR) (Homo sapiens, UniProt P04150).
T1 sequence (P04150 1-777): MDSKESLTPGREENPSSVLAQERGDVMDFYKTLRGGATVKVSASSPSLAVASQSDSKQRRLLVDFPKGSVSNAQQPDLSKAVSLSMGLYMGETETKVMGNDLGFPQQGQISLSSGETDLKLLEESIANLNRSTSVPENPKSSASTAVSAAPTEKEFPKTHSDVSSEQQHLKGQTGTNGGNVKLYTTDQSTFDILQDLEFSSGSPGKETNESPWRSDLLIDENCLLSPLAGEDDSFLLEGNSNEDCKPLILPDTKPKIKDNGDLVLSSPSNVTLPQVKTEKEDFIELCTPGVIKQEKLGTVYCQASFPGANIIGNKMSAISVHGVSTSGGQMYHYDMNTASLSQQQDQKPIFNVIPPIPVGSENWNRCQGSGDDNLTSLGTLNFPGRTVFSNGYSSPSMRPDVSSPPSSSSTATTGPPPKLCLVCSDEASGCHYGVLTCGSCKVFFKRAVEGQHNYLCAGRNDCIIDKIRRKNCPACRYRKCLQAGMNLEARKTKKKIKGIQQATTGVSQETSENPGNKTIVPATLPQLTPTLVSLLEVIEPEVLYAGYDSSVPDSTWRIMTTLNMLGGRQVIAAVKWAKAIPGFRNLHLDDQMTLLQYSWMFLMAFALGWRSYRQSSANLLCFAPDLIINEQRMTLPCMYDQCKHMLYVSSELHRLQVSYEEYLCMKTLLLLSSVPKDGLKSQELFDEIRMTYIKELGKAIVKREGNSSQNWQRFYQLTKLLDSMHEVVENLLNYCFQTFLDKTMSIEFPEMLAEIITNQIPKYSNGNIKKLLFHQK
Briefly: GR binding, glucocorticoid radioligand binding with [3H]-dexamethasone. From the text:
(§1) The methods are described by Gill et al. and Morgan et al., supra.

In experiment [2] the target is T2, native glucocorticoid receptors (Homo sapiens, UniProt P04150).
T2 construct: cell line that expresses native glucocorticoid receptors; endogenous in cells; host or cells: SW1353 human chondrosarcoma cells, stably transfected only with a GRE-luciferase reporter
T2 sequence (P04150 1-777): T1 sequence (P04150 1-777)
The experiment can be described thus: Glucocorticoid reporter gene assay (GRE-luciferase) in SW1353 cells, GR antagonist activity. To be noted: for pKi: Ki=IC50/(1+[Dex]/EC50Dex); for pIC50: 24 hours, in the presence of 50 nM dexamethasone. It counts as cell-based. From the text: Depending on the intended use and route of administration, various criteria may be used to determine a GR antagonist for use in the invention. […] The GR antagonism preferably negates more than 30%, more preferably more than 50%, and most preferably more than 90%, of the GR agonism at sites distant from the site of administration of the corticosteroid, and negates less than 70%, more preferably less than 50%, and most preferably less than 10%, of the GR agonism at the site of intended action of the corticosteroid.
The glucocorticoid reporter gene assay was performed in SW1353 human chondrosarcoma cell line that expresses native glucocorticoid receptors (Morgan et al., supra), stably transfected with a vector containing a glucocorticoid-responsive element (GRE) linked to the firefly luciferase gene. […] Compounds were tested on two separate occasions to determine inter-assay variability.
Ki values were calculated from the equation
Ki=IC50/(1+[Dex]/EC50^Dex)

Experiment [3] addresses T3, human recombinant receptor (PR) (Homo sapiens, UniProt P06401).
T3 sequence (P06401 1-933): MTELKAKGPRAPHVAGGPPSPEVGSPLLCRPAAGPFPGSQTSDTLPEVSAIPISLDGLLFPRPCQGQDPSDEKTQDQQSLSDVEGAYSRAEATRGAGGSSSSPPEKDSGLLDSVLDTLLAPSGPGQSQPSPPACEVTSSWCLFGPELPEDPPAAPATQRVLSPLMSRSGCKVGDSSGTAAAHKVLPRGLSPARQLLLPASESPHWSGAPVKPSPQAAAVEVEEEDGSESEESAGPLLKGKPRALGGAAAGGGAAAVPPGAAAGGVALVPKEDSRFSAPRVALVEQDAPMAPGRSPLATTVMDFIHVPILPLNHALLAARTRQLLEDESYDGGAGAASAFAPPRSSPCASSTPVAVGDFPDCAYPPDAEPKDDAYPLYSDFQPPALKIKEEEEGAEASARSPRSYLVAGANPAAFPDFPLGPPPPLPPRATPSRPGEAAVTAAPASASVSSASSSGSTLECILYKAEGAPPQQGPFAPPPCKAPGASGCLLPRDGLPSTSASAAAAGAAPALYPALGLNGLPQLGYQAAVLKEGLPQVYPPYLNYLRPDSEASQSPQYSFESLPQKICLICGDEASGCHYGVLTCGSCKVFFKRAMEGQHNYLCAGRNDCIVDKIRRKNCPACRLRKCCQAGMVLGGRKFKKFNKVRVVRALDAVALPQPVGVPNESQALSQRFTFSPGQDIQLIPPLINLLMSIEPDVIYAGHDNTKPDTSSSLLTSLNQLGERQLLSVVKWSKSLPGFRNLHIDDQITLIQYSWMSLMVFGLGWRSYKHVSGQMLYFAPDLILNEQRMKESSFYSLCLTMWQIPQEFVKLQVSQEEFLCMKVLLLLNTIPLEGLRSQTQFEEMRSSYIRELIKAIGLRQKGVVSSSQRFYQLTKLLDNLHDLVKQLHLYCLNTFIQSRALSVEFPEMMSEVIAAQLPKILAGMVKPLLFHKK
The experiment can be described thus: PR binding, radioligand binding with [3H]-progesterone. On the procedure: as §1
PR binding was assessed using the same methods, using the human recombinant receptor and [^3H]-progesterone. IC50 values were determined from six-point concentration/inhibition curves performed in duplicate at semi-log concentrations.

Experiment [4] deals with Intraocular pressure (IOP). Briefly: Intraocular pressure after a single eye drop in New Zealand White rabbits. As to conditions: rabbit; for IOP at 3 hours, Mean (SEM) / IOP at 4 hours, Mean (SEM): 0.3% single eye drop; for decrease in IOP compared to vehicle-treated group: at 3 and 4 hours. It counts as in vivo. As for the experimental part:
Healthy female New Zealand White rabbits were tested in a randomized, blind, controlled study, with 6 animals per treatment group. They were acclimatized for 7 days prior to the start of the study. Intraocular pressure (IOP) was measured in both eyes pre-treatment and at intervals after instillation of a single eye drop of vehicle or test compound into the left eye of each animal, administered from a dropper bottle. The volume of each drop was approximately 60-65 microlitres. The vehicle was a sterile solution of 15% hydroxpropyl-β-cyclodextrin, 5% polyethylene glycol, 0.5% hydroxypropylmethylcellulose in deionised water, adjusted to pH 7 with HCl or NaOH as appropriate. […] IOP was measured using a Mentor Tonopen XL (Lim et al., 2005, Invest Opthalmol Vis Sci 46 2419-23), after topical administration of 0.5% proxymetacaine HCl local anaesthetic. Ten recordings per eye per time point were taken and a mean reading documented.

For experiment [5], the target named is GR receptors in the iris-ciliary body (Oryctolagus cuniculus, UniProt P59667). To be noted: rabbit eye; cited from earlier work.
The test system of a further experiment is rat skin. As to conditions: given subcutaneously or topically to the skin; cited from earlier work.
Another experiment has as its system intraocular pressure. To be noted: rabbit, cited from earlier work.
The mark [6] stands for this setting: read-out: GR Antagonist Mean Ki.

Chain of GR receptors in the iris-ciliary body (P59667 whole entry): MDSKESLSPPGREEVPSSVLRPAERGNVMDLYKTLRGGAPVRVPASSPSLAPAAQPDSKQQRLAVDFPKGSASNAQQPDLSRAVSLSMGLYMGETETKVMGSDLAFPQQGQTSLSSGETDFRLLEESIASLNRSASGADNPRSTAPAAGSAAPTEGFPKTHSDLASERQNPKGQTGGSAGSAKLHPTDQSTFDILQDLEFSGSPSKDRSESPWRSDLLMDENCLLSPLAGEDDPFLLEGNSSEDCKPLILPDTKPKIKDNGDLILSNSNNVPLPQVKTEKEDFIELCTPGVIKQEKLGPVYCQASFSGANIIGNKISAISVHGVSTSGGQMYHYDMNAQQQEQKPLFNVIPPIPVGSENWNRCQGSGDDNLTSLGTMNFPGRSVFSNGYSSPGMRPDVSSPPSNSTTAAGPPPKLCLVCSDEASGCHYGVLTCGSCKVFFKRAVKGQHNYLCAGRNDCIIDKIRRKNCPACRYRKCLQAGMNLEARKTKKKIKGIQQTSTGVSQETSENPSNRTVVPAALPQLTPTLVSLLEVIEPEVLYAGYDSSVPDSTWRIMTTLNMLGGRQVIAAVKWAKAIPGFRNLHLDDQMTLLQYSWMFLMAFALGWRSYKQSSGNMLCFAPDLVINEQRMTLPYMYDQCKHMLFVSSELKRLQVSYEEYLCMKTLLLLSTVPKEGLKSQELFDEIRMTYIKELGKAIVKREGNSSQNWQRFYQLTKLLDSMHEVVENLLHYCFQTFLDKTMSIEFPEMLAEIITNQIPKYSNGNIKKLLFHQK

In the case of `COc1cccc2c1-c1ccc(NS(C)(=O)=O)cc1C(c1cccc(C)c1)O2` (stereo not drawn) [Compound A-362947, N-[1-methoxy-6-(3-methylphenyl)-6H-benzo{c}chromen-8-yl]methanesulfonamide], the figures for the pIC50 in experiment [1] and in experiment [3] were 8.25 and 5.88, respectively. Also, the figures for the pKi in experiment [1], in experiment [2] (GR Antagonist Mean Ki) and in experiment [3] were 8.55, 7.30 and 6.27, respectively.

`CC#C[C@]1(O)CC[C@H]2[C@@H]3CCC4=CC(=O)CCC4=C3[C@@H](c3ccc(N(C)C)cc3)C[C@@]21C` [RU486, Mifepristone]: in experiment [4], the “IOP at 3 hours, Mean (SEM)” value was 11.67 (1.23) mm Hg; the “IOP at 4 hours, Mean (SEM)” value is 11.83 (1.19) mm Hg; the “decrease in IOP compared to vehicle-treated group” value (from here on “decrease in IOP”) was “did not induce a statistically significant decrease in IOP”. For the same compound, in experiment [5], the “binding to GR receptors in iris-ciliary body” value is on record as “specifically blocks the binding of the GR agonist triamcinolone”. The “effect on steroid-induced skin atrophy” value in the experiment with rat skin is reported as “blocked atrophogenic effect of the topical steroid without affecting its anti-inflammatory effect”. In the experiment on intraocular pressure (1% suspension eyedrops topically, after 4-13 weeks of treatment), the “effect on intraocular pressure, topical” value is given as “falls in intraocular pressure have been noted”. The “effect on intraocular pressure, subconjunctival injection” value in the experiment with intraocular pressure (1% suspension injected subconjunctivally) is on record as “falls in intraocular pressure were reported”.

Consider `CC#C[C@]1(O)CC[C@H]2[C@@H]3CCC4=CC(=O)CCC4=C3[C@@H](c3ccc(NC)cc3)C[C@@]21C` [RU42633], for which the pIC50 (as a rule, the negative decadic logarithm of the IC50, by convention in mol/L) was 8.95 in experiment [1], 7.76 in experiment [2] and 8.35 in experiment [3]. Besides, the pKi (commonly the Ki on a negative log10 scale, so that one unit is a factor of ten) is 9.25 in experiment [1], 8.59 in experiment [2] (setting [6]) and 8.75 in experiment [3].

Regarding `CN(C)c1ccc([C@H]2C[C@@]3(C)[C@@H](CC[C@]3(O)C#CCO)[C@@H]3CCC4=CC(=O)CCC4=C32)cc1` [RU42698], in experiment [1], the pIC50 was 8.76 and the pKi was 9.06. Further, in experiment [4], the “IOP at 3 hours, Mean (SEM)” value is given as 11.83 (0.40) * mm Hg; the “IOP at 4 hours, Mean (SEM)” value is 11.83 (0.31) * mm Hg; the “decrease in IOP” value is “induced a significant decrease”. The pIC50 in experiment [2] is 7.09. Besides, the pKi in experiment [2] (setting [6]) is 7.90. In addition, in experiment [3], the pIC50 is 7.97 and the pKi is 8.37.

Take `CC#C[C@]1(O)CC[C@H]2[C@@H]3CCC4=CC(=O)CCC4=C3[C@@H](c3ccc(N)cc3)C[C@@]21C` [RU42848]: in experiment [1], the pIC50 is 8.87 and the pKi was 9.17. Further, in experiment [4], the “IOP at 3 hours, Mean (SEM)” value was 11.67 (0.49) * mm Hg; the “IOP at 4 hours, Mean (SEM)” value is given as 11.50 (0.34) * mm Hg; the “decrease in IOP” value is “induced a significant decrease in IOP”. For the same compound, in experiment [2], the pIC50 is 7.23. For the same compound, the pKi in experiment [2] (setting [6]) was 8.07. Further, in experiment [3], the pIC50 was 7.80 and the pKi was 8.20.
